Experiment [1] relates to DLD-1 BRCA2−/− cells. Kind of experiment: Homologous recombination synthetic lethal inhibition of proliferation, DLD-1 BRCA2-/- (Cell Titre Glo 3D). As to conditions: for IC50: Homo sapiens. It is filed as cell-based. The procedure, abridged: (§1)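 Proliferation of HR-deficient DLD-1 BRCA2−/− versus isogenic wild-type DLD-1 was measured by ATP luminescence (CellTiter-Glo 3D). Compound exposure lasted 12 or 7 days, respectively, with a fresh dose on day 6. IC50 was the concentration halving maximal signal.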

In experiment [2] the test system is DLD-1 cells. Put plainly: Inhibition of proliferation, DLD-1 BRCA2 wt control (Cell Titre Glo 3D). The experiment is classed as cell-based. As to conditions: for IC50: Homo sapiens. Summed up: as §1
Setting [3] is: DLD-1, 288 h, DLD-1 BRCA2−/− cells, 12 days, read-out: POLQ PD Prolif Lumin BRCA2 −/− mean pIC50 (converted).
Where [4] appears, read: DLD-1, 168 h, DLD-1 BRCA2 wt cells, 7 days, read-out: POLQ PD Prolif Lumin DLD1 mean pIC50 (converted).
The mark [5] stands for this setting: DLD-1, 288 h, DLD-1 BRCA2−/−, 12 days, Cell Titre Glo 3D, read-out: POLQ PD Prolif Lumin BRCA2 −/− Mean pIC50 (converted).
Setting [6] is: DLD-1, 168 h, DLD-1 (BRCA2 wt control), 7 days, Cell Titre Glo 3D, read-out: POLQ PD Prolif Lumin DLD1 Mean pIC50 (converted).
[7] abbreviates: DLD-1, first proliferation column (c5), DLD-1 BRCA2-/-, read-out: POLQ PD Prolif Lumin (converted).
[8] abbreviates: DLD-1, second proliferation column (c6), DLD-1 BRCA2 wt control, read-out: POLQ PD Prolif Lumin (converted).
The mark [9] stands for this setting: DLD-1, first proliferation column (c5), taken as DLD-1 BRCA2-/-, read-out: POLQ PD Prolif Lumin (converted).
Where [10] appears, read: DLD-1, second proliferation column (c6), taken as DLD-1 BRCA2 wt, read-out: POLQ PD Prolif Lumin (converted).
[11] abbreviates: DLD-1, DLD-1 BRCA2-/- proliferation, column head only partly shown, read-out: POLQ PD Prolif Lumin (converted).
Setting [12] is: DLD-1, DLD-1 BRCA2 wt control proliferation, column head only partly shown, read-out: POLQ PD Prolif Lumin (converted).

The structures appear in SMILES notation. Like-named read-outs stand apart in the source and are kept apart here.

Turning to `CC1(Oc2ncnc3c2nc(-c2ccc(OCCC(C)(C)C(=O)O)cc2Cl)n3Cc2cccc(Cl)c2)CC1` [Example T435, 4-(3-chloro-4-(9-(3-chlorobenzyl)-6-(1-methylcyclopropoxy)-9H-purin-8-yl)phenoxy)-2,2-dimethylbutanoic acid], the IC50 is 200 nM in experiment [1] (DLD-1, proliferation, luminescence, taken as DLD-1 BRCA2-/-, read-out: POLQ PD Prolif Lumin (converted)) and above 10000 nM in experiment [2] (DLD-1, proliferation, luminescence, second Prolif column (c6), taken as DLD-1 BRCA2 wt control, read-out: POLQ PD Prolif Lumin (converted)).
With `CC1(Oc2ncnc3c2nc(-c2cccc(C(=O)O)c2Cl)n3Cc2cccc(Cl)c2)CC1` [Example T12, 2-chloro-3-(9-(3-chlorobenzyl)-6-(1-methylcyclopropoxy)-9H-purin-8-yl)benzoic acid], the IC50 is above 10000 nM in experiment [1] (DLD-1, DLD-1 BRCA2 −/− cells, mean, read-out: POLQ PD Prolif Lumin BRCA2 −/− mean pIC50 (converted)) and above 10000 nM in experiment [2] (DLD-1, DLD1 BRCA2 wt cells, mean, read-out: POLQ PD Prolif Lumin DLD1 mean PIC50 (converted)).
Take `CC(=O)NCCCOc1ccc(-c2nc3c(OC4(C)CC4)ncnc3n2Cc2ccccc2)c(Cl)c1` [Example D7, N-(3-(4-(9-benzyl-6-(1-methylcyclopropoxy)-9H-purin-8-yl)-3-chlorophenoxy)propyl)acetamide]: the IC50 in experiment [1] (setting [3]) is 126 nM; in experiment [2] (setting [4]) it was 6310 nM.
For the molecule `Cc1ccnc(Cn2c(-c3ccc(OC[C@H](C)O)cc3Cl)nc3c(OC4(C)CC4)ncnc32)c1` [Example 36, (S)-1-(3-Chloro-4-(6-(1-methylcyclopropoxy)-9-((4-methylpyridin-2-yl)methyl)-9H-purin-8-yl)phenoxy)propan-2-ol], the IC50 in experiment [1] (setting [5]) was 251 nM; in experiment [2] (setting [6]) it was above 10000 nM.
In the case of `Cc1cc(OCCN2CCNCC2)ccc1-c1nc2c(OC3(C)CC3)ncnc2n1Cc1cc(Cl)ccn1` [Example T529, 9-((4-chloropyridin-2-yl)methyl)-8-(2-methyl-4-(2-(piperazin-1-yl)ethoxy)phenyl)-6-(1-methylcyclopropoxy)-9H-purine], the results for the IC50 in experiment [1] (setting [7]) and in experiment [2] (setting [8]) were 631 nM and above 10000 nM, respectively.
As to `COc1cc(OCCN2CCN(C)CC2)ccc1-c1nc2c(OC3(C)CC3)ncnc2n1Cc1ccccc1` [Example H3, 9-benzyl-8-(2-methoxy-4-(2-(4-methylpiperazin-1-yl)ethoxy)phenyl)-6-(1-methylcyclopropoxy)-9H-purine], the results for the IC50 in experiment [1] (setting [3]) and in experiment [2] (setting [4]) were 631 nM and 7940 nM, respectively.
For the molecule `CN(C)CCCOc1ccc(-c2nc3c(OC4(C)CC4)ncnc3n2Cc2cc(C(F)(F)F)ccn2)c(Cl)c1` [Example T329, 3-(3-chloro-4-(6-(1-methylcyclopropoxy)-9-((4-(trifluoromethyl)pyridin-2-yl)methyl)-9H-purin-8-yl)phenoxy)-N,N-dimethylpropan-1-amine], the IC50 in experiment [1] (setting [9]) was 126 nM; in experiment [2] (setting [10]), 10000 nM.
`C#CC1(Oc2ncnc3c2nc(-c2ccc(OCCN4CCNCC4)cc2Cl)n3Cc2ccccc2)CCC1` [Example Q3, 9-benzyl-8-(2-chloro-4-(2-(piperazin-1-yl)ethoxy)phenyl)-6-(1-ethynylcyclobutoxy)-9H-purine]: the IC50 was 251 nM in experiment [1] (setting [3]) and 5010 nM in experiment [2] (setting [4]).
Turning to `Cc1csc(Cn2c(-c3ccc(OCCN4CCNCC4)cc3Cl)nc3c(OC4(C)CC4)ncnc32)n1` [Example T248, 2-((8-(2-chloro-4-(2-(piperazin-1-yl)ethoxy)phenyl)-6-(1-methylcyclopropoxy)-9H-purin-9-yl)methyl)-4-methylthiazole], the IC50 in experiment [1] (setting [11]) was 2000 nM; in experiment [2] (setting [12]) it was above 10000 nM.
Taken in the same sequence, the figures for `CC1(Oc2ncnc3c2nc(-c2ccc(N4CCC(N)CC4)cc2Cl)n3Cc2cc(Cl)ccn2)CC1` [Example T230, 1-(3-chloro-4-(9-((4-chloropyridin-2-yl)methyl)-6-(1-methylcyclopropoxy)-9H-purin-8-yl)phenyl)piperidin-4-amine] were 398 nM and above 10000 nM.
Regarding `COc1cc(-c2nc3c(OC4(C)CC4)ncnc3n2Cc2ccccc2)c(Cl)cc1OCCN1CCNCC1` [Example J2, 9-benzyl-8-(2-chloro-5-methoxy-4-(2-(piperazin-1-yl)ethoxy)phenyl)-6-(1-methylcyclopropoxy)-9H-purine], the IC50 was 794 nM in experiment [1] (setting [3]) and 3980 nM in experiment [2] (setting [4]).
The corresponding values for `Cc1cc(OCCN2CCN(C)CC2)ccc1-c1nc2c(OC3(C)CC3)ncnc2n1Cc1ccccc1` [Example C1, 9-benzyl-8-(2-methyl-4-(2-(4-methylpiperazin-1-yl)ethoxy)phenyl)-6-(1-methylcyclopropoxy)-9H-purine] are 100 nM and 5010 nM.
As for `CC1(Oc2ncnc3c2nc(-c2ccc(O[C@H]4C[C@@H](C(=O)O)C4)cc2Cl)n3Cc2cccc(Cl)c2)CC1` [Example T254, (1s,3s)-3-(3-chloro-4-(9-(3-chlorobenzyl)-6-(1-methylcyclopropoxy)-9H-purin-8-yl)phenoxy)cyclobutane-1-carboxylic acid], the “POLQ PD Prolif Lumin” value is 6.8 in experiment [1] (DLD-1 BRCA2-/- proliferation, column head only partly shown) and below 5.0 in experiment [2] (DLD-1 BRCA2 wt control proliferation, column head only partly shown).
Consider `CC1(Oc2ncnc3c2nc(-c2ccc(OCCOCC(=O)O)cc2Cl)n3Cc2cccc(Cl)c2)CC1` [Example 46, 2-(2-(3-Chloro-4-(9-(3-chlorobenzyl)-6-(1-methylcyclopropoxy)-9H-purin-8-yl)phenoxy)ethoxy)acetic acid], for which the IC50 is 1260 nM in experiment [1] (setting [5]) and above 10000 nM in experiment [2] (setting [6]).
For the molecule `CC1(Oc2ncnc3c2nc(-c2ccc(OCCCN4CC(O)C4)cc2Cl)n3Cc2cc(Cl)ccn2)CC1` [Example T347, 1-(3-(3-chloro-4-(9-((4-chloropyridin-2-yl)methyl)-6-(1-methylcyclopropoxy)-9H-purin-8-yl)phenoxy)propyl)azetidin-3-ol], the figures for the IC50 in experiment [1] (setting [9]) and in experiment [2] (setting [10]) were 158 nM and above 7940 nM, respectively.
Take `Cc1ccc(Cn2c(-c3ccc(OCCN4CCNCC4)cc3Cl)nc3c(OC4(C)CC4)ncnc32)nc1` [Example L8, 8-(2-chloro-4-(2-(piperazin-1-yl)ethoxy)phenyl)-6-(1-methylcyclopropoxy)-9-((5-methylpyridin-2-yl)methyl)-9H-purine]: the IC50 in experiment [1] (setting [3]) is 2000 nM; in experiment [2] (setting [4]), above 10000 nM.
Take `Cc1cnc(Cn2c(-c3cccc(OCCCN(C)C)c3Cl)nc3c(OC4(C)CC4)ncnc32)s1` [Example T149, 3-(2-chloro-3-(6-(1-methylcyclopropoxy)-9-((5-methylthiazol-2-yl)methyl)-9H-purin-8-yl)phenoxy)-N,N-dimethylpropan-1-amine]: the values for the IC50 in experiment [1] (setting [7]) and in experiment [2] (setting [8]) were 316 nM and above 10000 nM, respectively.
Consider `CC(CCOc1ccc(-c2nc3c(OC4(C)CC4)ncnc3n2Cc2cc(Cl)cc(Cl)c2)c(Cl)c1)C(=O)O` (racemic) [Example T275, 4-(3-chloro-4-(9-(3,5-dichlorobenzyl)-6-(1-methylcyclopropoxy)-9H-purin-8-yl)phenoxy)-2-methylbutanoic acid], for which the IC50 was 126 nM in experiment [1] (setting [11]) and above 10000 nM in experiment [2] (setting [12]).
Regarding `CC1(Oc2ncnc3c2nc(-c2cccc(OCCCOCC(=O)O)c2Cl)n3Cc2cccc(Cl)c2)CC1` [Example T304, 2-(3-(2-chloro-3-(9-(3-chlorobenzyl)-6-(1-methylcyclopropoxy)-9H-purin-8-yl)phenoxy)propoxy)acetic acid], the IC50 in experiment [1] (setting [9]) was 100 nM; in experiment [2] (setting [10]) it was above 10000 nM.
Take `CC(C)Oc1ccc2c(c1)nc(-c1ccc(OC3CCCN(C)CC3)cc1Cl)n2Cc1ccccc1` (single isomer, unassigned) [Example A10, 1-benzyl-2-(2-chloro-4-((1-methylazepan-4-yl)oxy)phenyl)-5-isopropoxy-1H-benzo[d]imidazole]: the IC50 in experiment [1] (setting [3]) was 794 nM; in experiment [2] (setting [4]), 2510 nM.
Taken in the same sequence, the figures for `CC(C)Oc1ccc2c(n1)nc(-c1ccc(OCCN3CCNCC3)cc1Cl)n2Cc1ccccc1` [Example 8, 1-Benzyl-2-(2-chloro-4-(2-(piperazin-1-yl)ethoxy)phenyl)-5-isopropoxy-1H-imidazo[4,5-b]pyridine] were 1000 nM and 3160 nM.
Take `C#CC1(Oc2ncnc3c2nc(-c2ccc(OCCN4CCNCC4)cc2Cl)n3Cc2ccccc2)CC1` [Example Q1, 9-benzyl-8-(2-chloro-4-(2-(piperazin-1-yl)ethoxy)phenyl)-6-(1-ethynylcyclopropoxy)-9H-purine]: the IC50 is 316 nM in experiment [1] (setting [3]) and above 10000 nM in experiment [2] (setting [4]).

Values taken from patent publication US20250195530A1, “POLQ INHIBITORS” (ASTRAZENECA AB, priority 2022, published 2025).
